Reference: patent US20210032257A1, “(E)-1-(4-(DIMETHYLAMINO)BUT-2-ENOYL)PYRROLIDIN-3-YL 4-((3-ISOPROPYL-5-METHYLPYRAZOLO[1,5-A]PYRIMIDIN-7-YL)AMINO)PIPERIDINE-1-CARBOXYLATE FOR INHIBITING CDK7” (Eli Lilly and Company, priority 2017, published 2021)

Assays:
Assay in all cases: Biomarker study proliferation (CellTiter-Glo)
Type in all cases: cell-based
[1] = tested on: KLE
Summary of the method: (§1)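 Cell lines were chosen by ARID1A, KMT2C, KMT2D and/or RB1 status from COSMIC and cBioportal. Viability after 7 days of treatment was measured by CellTiter-Glo luminescence, with 5 μM staurosporine as the full-inhibition control.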

[2] = tested on: LN229
Summary of the method: as §1

[3] = tested on: HCC1806
Summary of the method: as §1

[4] = tested on: M14
Summary of the method: as §1

[5] = tested on: HUH7
Summary of the method: as §1

[6] = tested on: DMS53
Summary of the method: as §1

[7] = tested on: KYSE150
Summary of the method: as §1

[8] = tested on: TOV112D
Summary of the method: as §1

[9] = tested on: TGW
Summary of the method: as §1

[10] = tested on: NUGC4
Summary of the method: as §1

[11] = tested on: SNU739
Summary of the method: as §1

[12] = tested on: HCT8
Summary of the method: as §1

[13] = tested on: A673
Summary of the method: as §1

[14] = tested on: HL60
Summary of the method: as §1

[15] = tested on: NCIH1975
Summary of the method: as §1

[16] = tested on: KELLY
Summary of the method: as §1

[17] = tested on: HGC27
Summary of the method: as §1

[18] = Homo sapiens, 168 h, read-out: Anti-proliferation effect IC50

Cc1cc(NC2CCN(C(=O)O[C@H]3CCN(C(=O)/C=C/CN(C)C)C3)CC2)n2ncc(C(C)C)c2n1 [Example 1, [(3S)-1-[(E)-4-(dimethylamino)but-2-enoyl]pyrrolidin-3-yl] 4-[(3-isopropyl-5-methyl-pyrazolo[1,5-a]pyrimidin-7-yl)amino]piperidine-1-carboxylate]
Anti-proliferation effect % Inh. ([1]; ENDOMETRIUM, 7 days): 65% | Anti-proliferation effect Outcome ([1]; ENDOMETRIUM, 7 days): Cytostatic (cytostatic (IC50<1 μM and % inhibition <70%)) | IC50 [1, 18]: 28 nM | IC50 ([2]; Homo sapiens, LN-229, 168 h, read-out: Anti-proliferation effect IC50): 36 nM | Anti-proliferation effect % Inh. ([2]; LN229, CNS, 7 days): 63% | Anti-proliferation effect Outcome ([2]; LN229, CNS, 7 days): Cytostatic (cytostatic (IC50<1 μM and % inhibition <70%)) | Anti-proliferation effect % Inh. ([3]; HCC1806, BREAST, 7 days): 99% | Anti-proliferation effect Outcome ([3]; HCC1806, BREAST, 7 days): Cytotoxic (cytotoxic (IC50<1 μM and % inhibition ≥70%)) | IC50 ([3]; Homo sapiens, HCC1806, 168 h, read-out: Anti-proliferation effect IC50): 14 nM | IC50 ([4]; Homo sapiens, M14, 168 h, read-out: Anti-proliferation effect IC50): 32 nM | Anti-proliferation effect % Inh. ([4]; M14, SKIN, 7 days): 85% | Anti-proliferation effect Outcome ([4]; M14, SKIN, 7 days): Cytotoxic (cytotoxic (IC50<1 μM and % inhibition ≥70%)) | Anti-proliferation effect % Inh. ([5]; HUH7, LIVER, 7 days): 64% | Anti-proliferation effect Outcome ([5]; HUH7, LIVER, 7 days): Cytostatic (cytostatic (IC50<1 μM and % inhibition <70%)) | IC50 ([5]; Homo sapiens, Huh-7, 168 h, read-out: Anti-proliferation effect IC50): 175 nM | Anti-proliferation effect % Inh. ([6]; DMS53, LUNG, 7 days): 66% | Anti-proliferation effect Outcome ([6]; DMS53, LUNG, 7 days): Cytostatic (cytostatic (IC50<1 μM and % inhibition <70%)) | IC50 ([6]; Homo sapiens, DMS-53, 168 h, read-out: Anti-proliferation effect IC50): 118 nM | IC50 ([7]; Homo sapiens, KYSE-150, 168 h, read-out: Anti-proliferation effect IC50): 42 nM | Anti-proliferation effect % Inh. ([7]; KYSE150, OESOPHAGUS, 7 days): 64% | Anti-proliferation effect Outcome ([7]; KYSE150, OESOPHAGUS, 7 days): Cytostatic (cytostatic (IC50<1 μM and % inhibition <70%)) | IC50 [8, 18]: 25 nM | Anti-proliferation effect % Inh. ([8]; OVARY, 7 days): 81% | Anti-proliferation effect Outcome ([8]; OVARY, 7 days): Cytotoxic (cytotoxic (IC50<1 μM and % inhibition ≥70%)) | IC50 ([9]; 168 h, read-out: Anti-proliferation effect IC50): 70 nM | Anti-proliferation effect % Inh. ([9]; TGW, BRAIN, 7 days): 63% | Anti-proliferation effect Outcome ([9]; TGW, BRAIN, 7 days): Cytostatic (cytostatic (IC50<1 μM and % inhibition <70%)) | IC50 ([10]; Homo sapiens, NUGC-4, 168 h, read-out: Anti-proliferation effect IC50): 19 nM | Anti-proliferation effect % Inh. ([10]; NUGC4, STOMACH, 7 days): 83% | Anti-proliferation effect Outcome ([10]; NUGC4, STOMACH, 7 days): Cytotoxic (cytotoxic (IC50<1 μM and % inhibition ≥70%)) | Anti-proliferation effect % Inh. ([11]; SNU739, LIVER, 7 days): 47% | Anti-proliferation effect Outcome ([11]; SNU739, LIVER, 7 days): Insensitive (insensitive (IC50≥1 μM)) | IC50 ([11]; SNU-739, 168 h, read-out: Anti-proliferation effect IC50): > 10000 nM | Anti-proliferation effect % Inh. ([12]; HCT8, INTESTINE, 7 days): 3% | Anti-proliferation effect Outcome ([12]; HCT8, INTESTINE, 7 days): Cytostatic (cytostatic (IC50<1 μM and % inhibition <70%)) | IC50 ([12]; Homo sapiens, HCT-8, 168 h, read-out: Anti-proliferation effect IC50): 981 nM | Anti-proliferation effect % Inh. ([13]; A673, BONE, 7 days): 96% | Anti-proliferation effect Outcome ([13]; A673, BONE, 7 days): Cytotoxic (cytotoxic (IC50<1 μM and % inhibition ≥70%)) | IC50 ([13]; Homo sapiens, A673, 168 h, read-out: Anti-proliferation effect IC50): 14 nM | Anti-proliferation effect % Inh. ([14]; HL60, BLOOD, 7 days): 87% | Anti-proliferation effect Outcome ([14]; HL60, BLOOD, 7 days): Cytotoxic (cytotoxic (IC50<1 μM and % inhibition ≥70%)) | IC50 ([14]; Homo sapiens, HL-60, 168 h, read-out: Anti-proliferation effect IC50): 45 nM | IC50 ([15]; Homo sapiens, NCI-H1975, 168 h, read-out: Anti-proliferation effect IC50): 21 nM | Anti-proliferation effect % Inh. ([15]; NCIH1975, LUNG, 7 days): 90% | Anti-proliferation effect Outcome ([15]; NCIH1975, LUNG, 7 days): Cytotoxic (cytotoxic (IC50<1 μM and % inhibition ≥70%)) | Anti-proliferation effect % Inh. ([16]; KELLY, CNS, 7 days): 80% | Anti-proliferation effect Outcome ([16]; KELLY, CNS, 7 days): Cytotoxic (cytotoxic (IC50<1 μM and % inhibition ≥70%)) | IC50 ([16]; Kelly, 168 h, read-out: Anti-proliferation effect IC50): 58 nM | Anti-proliferation effect % Inh. ([17]; HGC27, STOMACH, 7 days): 78% | Anti-proliferation effect Outcome ([17]; HGC27, STOMACH, 7 days): Cytotoxic (cytotoxic (IC50<1 μM and % inhibition ≥70%)) | IC50 ([17]; Homo sapiens, HGC-27, 168 h, read-out: Anti-proliferation effect IC50): 68 nM
